Results as given in paper PMC12362594, “Design, Synthesis and Preclinical Evaluation of a Brain-Permeable PET Tracer for P2Y12 Receptor Imaging in the Brain” (Journal of Medicinal Chemistry, 2025).
Values joined by “and” are separate entries in the source; they are usually repeats but may differ in a detail not shown here. Identical values can stand only once.

Tests used:
P2Y12 receptor = target: P2Y12 receptor; set-up: method as in not given; settings: Chinese hamster ovarian cell membranes; reported values from literature; ref not given; cited from earlier work
P2Y12R [1] = target: P2Y12R (Homo sapiens, UniProt Q9H244); assay: cell-based; settings: IC50, [33P]2-MeSADP competitor; triplicates, mean; footnote b values: three independent experiments, mean ± SD
P2Y12R (Homo sapiens, UniProt Q9H244), sequence (Q9H244 whole entry): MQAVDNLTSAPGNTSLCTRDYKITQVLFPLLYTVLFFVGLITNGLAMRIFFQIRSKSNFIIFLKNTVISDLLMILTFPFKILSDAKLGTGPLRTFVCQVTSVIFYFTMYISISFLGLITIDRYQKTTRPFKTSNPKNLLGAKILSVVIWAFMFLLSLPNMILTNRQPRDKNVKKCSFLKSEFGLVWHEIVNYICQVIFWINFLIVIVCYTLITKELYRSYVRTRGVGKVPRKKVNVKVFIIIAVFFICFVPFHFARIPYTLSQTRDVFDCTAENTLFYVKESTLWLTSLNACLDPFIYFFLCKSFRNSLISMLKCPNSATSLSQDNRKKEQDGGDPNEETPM
Experimental: The cell cultures were maintained in an incubator at 37 °C under a humidified and 5% CO2-conditioned atmosphere. Cells were passaged at 80% confluency. For binding assays, cells were harvested with Trypsin-EDTA (5 mL, Gibco) and resuspended in medium. The suspension was centrifuged at 1000g for 5 min and the supernatant was discarded. The cells were adjusted to assay cell concentration (2 × 10^6 cells/mL) by the addition of D-PBS and stored at 37 °C up to 1 h prior to the binding assay.
The mixture was transferred to a 96-well filter plate (1.0 μm glass fiber filter, MultiScreenHTS FB Filter Plate, Merck Millipore, Billercia, MA) and filtered with a vacuum manifold (MultiScreenHTS Vacuum Manifold, Merck Millipore, Billercia, MA). The filters were washed by the addition of cold PBS buffer (4 × 200 μL) and dried at rt for 1 h. Afterward, a punch-tip plate was mounted and the filters were separated into scintillation vials (10 mL) containing scintillation cocktail (4 mL, Rotiszint eco plus LSC-Universalcocktail). […] Bound activity was plotted as a function of ligand concentration in GraphPad Prism 8.0 (GraphPad Software, version 8.4.3., San Diego, CA).

[2] = Ex vivo biodistribution 60 min p.i.; type: in vivo, mouse; settings: WT mice
[3] = In vitro stability in PBS, radio-HPLC; settings: PBS formulation, 37 °C
[4] = Log D 7.4 shake flask method, n-octanol/PBS; settings: pH 7.4
Experimental: The distribution of [^18F]12 between n-octanol and PBS buffer was determined by the shake-flask method at rt. […] After 30 min, three samples (100 μL) were taken from each phase. […] Radioactivity for all samples was quantified by a γ-counter (counting time 1 min, counting window 450–570 keV, HIDEX AMG γ Counter version 1.6.0.0, Turku, Finland).

[5] = In vitro stability in human blood/plasma, radio-HPLC; settings: 37 °C
P2Y12R [6] = target: T1, P2Y12R (Mus musculus, UniProt Q9CPV9); assay: Dynamic in vivo PET imaging in WT, PLX and Trem2-/- mice; settings: for maximum brain uptake C max: whole brain TAC
T1 sequence (Q9CPV9 whole entry): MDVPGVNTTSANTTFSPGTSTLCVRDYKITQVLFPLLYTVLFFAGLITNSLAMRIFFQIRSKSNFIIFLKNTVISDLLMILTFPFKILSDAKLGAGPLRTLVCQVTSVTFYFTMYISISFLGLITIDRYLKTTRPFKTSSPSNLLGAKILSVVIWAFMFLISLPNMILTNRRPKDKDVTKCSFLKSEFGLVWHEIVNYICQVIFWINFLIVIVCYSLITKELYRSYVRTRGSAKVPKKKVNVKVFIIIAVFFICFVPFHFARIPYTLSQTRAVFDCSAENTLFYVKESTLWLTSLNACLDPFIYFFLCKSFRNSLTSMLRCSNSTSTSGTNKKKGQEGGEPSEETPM
Experimental: Dynamic in vivo PET imaging was carried out in WT mice (n = 8) in order to assess the tracer distribution and brain uptake for [^18F]12 (Figure A). An initial peak of activity and subsequent rapid washout in blood and lungs was observed after tracer injection. The activity then predominantly accumulated in the liver, kidneys, bladder and intestines (Figure B). […] Dynamic in vivo PET imaging was repeated with WT mice (n = 2) under self-block conditions. […] Mouse organs were collected 60 min p.i. after intracardial perfusion to quantify the tracer uptake ex vivo.
To exclude a potential bias in brain PET interpretation caused by varying blood levels, volume-of-distribution (V T) images were computed using an image-derived cardiac input function.
The mice were scanned first with CT (70 kVp/650 μA, exposure time 300 ms, Helical 1.0 pitch). […] PET images of each mouse were coregistered with CT images of the corresponding mouse. A standardized global mean volume of interest (VOI) was used to assess tracer enrichment in the brain and to generate time-activity curves. For liver, bladder and kidney, VOIs were manually drawn as spheres. Data are reported as %ID/g or SUV. For each dynamic PET scan, VT was calculated using the method described by Logan et al., employing a cardiac input function obtained from a standardized VOI. The resulting brain V T image was then analyzed using a standardized global mean VOI. No corrections were made for radiometabolites.

[7] = Ex vivo metabolite analysis by radio-HPLC (plasma, liver, brain); settings: 60 min p.i.
Experimental: 60 min after tracer administration, mice were transferred to the anesthesia box for isoflurane overdose and euthanized by cervical dislocation. Mouse organs and blood samples were collected, weighed and counted in a γ-counter. Blood samples were obtained by cardiac puncture and transferred to EDTA tubes (Microvette 500 K3E, Sarstedt, Nümbrecht, Germany) to prevent platelet aggregation. Blood samples were centrifuged at 3000g for 5 min to isolate blood plasma. An equal volume of TFA solution (10%) was added to plasma to precipitate remaining plasma proteins. The precipitate was separated by centrifugation at 20,817g for 5 min. […] Brain and liver samples were homogenized (Ika disperser T8.10) in a 1:1 mixture of MeCN and H2O and centrifuged at 3000g for 5 min.

P2Y12R [8] = target: T1, P2Y12R; assay: In vitro autoradiography on mouse brain sections; type: binding; set-up: from tissue; host or cells: brain of living WT, PLX-5622-treated and Trem2-/- mice
Experimental: In vitro ARG experiments on brain sections from all animal models were performed under baseline and blocking conditions. […] However, as already concluded from our PET data (Figure ), the high signal in PLX sections may reflect a substantial amount of nonspecific (NSB) or off-target binding.
WT, PLX and Trem2^–/– mouse brain sections were thawed to rt for 5 min and then preincubated with PBS buffer (pH = 7.4) for 10 min. Sections were then incubated with a maximum of 0.5 MBq/mL [^18F]12 tracer formulation at rt for 45 min in PBS buffer. […] Subsequently, sections were washed with 30% ethanol for 1 min, 70% ethanol for 2 min and PBS for 1 min, before leaving them to dry at rt for 60 min. Afterward, brain sections were exposed to a phosphor imaging plate at rt for 24 h and then scanned with a CR-Reader (CR35 BIO, DÜRR MEDICAL, Bietigheim-Bissingen, Germany). The images were analyzed using Aida Image Analyzer software (v.4.50.010, Elysia-raytest GmbH, Straubenhardt, Germany). Quantification was performed by placing a region of interest (ROI) in the CTX and the hypothalamus (HYP) as pseudo reference region. Results are either expressed as normalized intensity relative to maximal intensity after background subtraction or as CTX to HYP ratio.

P2Y12R [9] = target: T1, P2Y12R; assay: Correlation of PET signal with immunohistochemistry; type: in vivo; set-up: from tissue; host or cells: brain of living WT, PLX-5622-treated and Trem2-/- mice; settings: cortical SUV 25–60 min p.i.
Experimental: Ex vivo immunohistochemical evaluation of Iba1 and P2Y12R expression was performed for a subset of mice (4 WT, 4 PLX, 8 Trem2^–/–) to correlate P2Y12 PET signal with target expression. […] High levels of Iba1 and P2Y12R were also detectable in Trem2^–/– mice, but reflecting the results of the PET studies, P2Y12R levels were not elevated compared to WT mice. Cortical SUV levels, derived from PET imaging in the most significant time frame (25–60 min p.i.) (Figure S12D), were correlated with Iba1 or P2Y12R expression density. A strong association between Iba1 signal and tracer uptake (R = 0.6589, p = 0.0055, Figure B) and between the P2Y12R signal and tracer uptake (R = 0.754, p = 0.0007, Figure C) was observed. The P2Y12 signal was well associated with Iba1 (R = 0.6, p = 0.014, Figure D) indicating predominant microglial receptor visualization.
Paraformaldehyde-fixed 50 μm thick sagittal brain sections were incubated overnight at 4 °C in PBS with 5% normal goat serum and 0.5% Triton X-100 containing guinea pig monoclonal anti-Iba1 primary antibody (1:500, Synaptic Systems GmbH, Göttingen, Germany, 234308) and rat monoclonal anti-P2Y12R primary antibody (1:200, P2YM 17A12, this work). […] The images were processed using the LAS X Software (version 3.9.1.28433), and analysis was conducted with FiJi/ImageJ (version 1.54f) by quantifying Iba1 and P2Y12R signal over a predefined threshold. […]

CCOC(=O)c1cc(C#N)c(N2CCC(C(=O)NS(=O)(=O)Cc3ccccc3)CC2)nc1C [Compound 5, Ethyl 6-(4-((Benzylsulfonyl)-carbamoyl)-piperidin-1-yl)-5-cyano-2-methylnicotinate, reference compound]
IC50 (P2Y12 receptor): 11 nM

CCOC(=O)c1cc(C#N)c(N2CCN(C(=O)NCc3ccc(F)cc3)CC2)nc1C [Compound 7, Ethyl 5-Cyano-6-(4-((4-fluorobenzyl)-carbamoyl)-piperazin-1-yl)-2-methylnicotinate]
IC50 (P2Y12R [1]): 1840 nM

N#Cc1cc2c(nc1N1CCN(C(=O)NCc3ccc(F)cc3)CC1)COC2=O [Compound 8, 4-(3-Cyano-5-oxo-5,7-dihydrofuro[3,4-b]-pyridin-2-yl)-N-(4-fluorobenzyl)-piperazine-1-carboxamide]
IC50 (P2Y12R [1]): 1840 nM and 5710 nM

CCOC(=O)c1ccc(N2CCC(C(=O)NCc3ccc(F)cc3)CC2)nc1C [Compound 9, Ethyl 6-(4-((4-Fluorobenzyl)-carbamoyl)-piperidin-1-yl)-2-methylnicotinate]
IC50 (P2Y12R [1]): 762 nM

N#Cc1cc2c(nc1N1CCC(C(=O)NCc3ccc(F)cc3)CC1)COC2=O [Compound 14, 1-(3-Cyano-5-oxo-5,7-dihydrofuro[3,4-b]-pyridin-2-yl)-N-(4-fluorobenzyl)-piperidine-4-carboxamide]
IC50 (P2Y12R [1]): 199 nM

CCOC(=O)c1ccc(N2CCC(C(=O)NCCc3ccc(F)cc3)CC2)nc1C [Compound 15, Ethyl 6-(4-((4-Fluorophenethyl)-carbamoyl)-piperidin-1-yl)-2-methylnicotinate]
IC50 (P2Y12R [1]): 1260 nM

CCOC(=O)c1cnc(N2CCC(C(=O)NCCc3ccc(F)cc3)CC2)c(Cl)c1 [Compound 16, Ethyl 5-Chloro-6-(4-((4-fluorophenethyl)-carbamoyl)-piperidin-1-yl)-nicotinate]
IC50 (P2Y12R [1]): 661 nM

CCOC(=O)c1cc(Cl)c(N2CCC(C(=O)NCCc3ccc(F)cc3)CC2)nc1C [Compound 17, Ethyl 5-Chloro-6-(4-((4-fluorophenethyl)-carbamoyl)-piperidin-1-yl)-2-methylnicotinate]
IC50 (P2Y12R [1]): 661 nM and 469 nM

CCOC(=O)c1cc(C#N)c(N2CCC(C(=O)NCCc3ccc(F)cc3)CC2)nc1C [Compound 18, Ethyl 5-Cyano-6-(4-((4-fluorophenethyl)-carbamoyl)-piperidin-1-yl)-2-methylnicotinate]
IC50 (P2Y12R [1]): 27100 nM

CCCOc1cc(N2CCC(C(=O)NCCc3ccc(F)cc3)CC2)c(Cl)cc1C(=O)OCC [Compound 19, Ethyl 5-Chloro-4-(4-((4-fluorophenethyl)-carbamoyl)-piperidin-1-yl)-2-propoxybenzoate]
IC50 (P2Y12R [1]): 27100 nM and 3670 nM

CCOC(=O)c1ccc(N2CC(C(=O)NCc3ccc(F)cc3)C2)nc1C [Compound 20, Ethyl 6-(3-((4-Fluorobenzyl)-carbamoyl)-azetidin-1-yl)-2-methylnicotinate]
IC50 (P2Y12R [1]): 806 nM

CCOC(=O)c1cnc(N2CC(C(=O)NCc3ccc(F)cc3)C2)c(Cl)c1 [Compound 21, Ethyl 5-Chloro-6-(3-((4-fluorobenzyl)-carbamoyl)-azetidin-1-yl)-nicotinate]
IC50 (P2Y12R [1]): 566 nM

CCOC(=O)c1cc(C#N)c(N2CCC(C(=O)NCc3ccc([18F])cc3)CC2)nc1C [[^18F]12]
Heart uptake ([2]; n = 2): 1.30 ± 0.51 %ID/g | Kidney uptake ([2]; n = 2): 5.5 ± 1.1 %ID/g | Liver uptake ([2]; n = 2): 19.6 ± 4.8 %ID/g | Lung uptake ([2]; n = 2): 0.68 ± 0.15 %ID/g | Pancreas uptake ([2]; n = 2): 0.79 ± 0.14 %ID/g | Plasma uptake ([2]; n = 2): 1.58 ± 0.78 %ID/g | Spleen uptake ([2]; n = 2): 0.77 ± 0.19 %ID/g | Kidney uptake ([2]; n = 2, listed as [18F]12): 5.51 ± 1.08 %ID/g | Liver uptake ([2]; n = 2, listed as [18F]12): 19.62 ± 4.75 %ID/g | Blood uptake ([2]; n = 12): 1.2 ± 0.6 %ID/g | Brain uptake ([2]; n = 12): 0.6 ± 0.2 %ID/g | Blood uptake ([2]; n = 12, listed as [18F]12): 1.24 ± 0.56 %ID/g | Brain uptake ([2]; n = 12, listed as [18F]12): 0.61 ± 0.21 %ID/g | time stable with no decomposition [3]: at least 2 h | logD [4]: 2.67 ± 0.45 | time stable with no decomposition [5]: at least 2 h | higher brain accumulation in WT compared to PLX mice (P2Y12R [6]; 25–60 min p.i., p = 0.0029): 42% | higher brain accumulation in Trem2-/- compared to PLX mice (P2Y12R [6]; 25–60 min p.i., p = 0.0362): 30% | maximum brain uptake C max (P2Y12R [6]; Trem2-/- mice): 1.7 ± 0.5 SUV | brain uptake under self-block conditions (P2Y12R [6]; WT mice n = 2, 200-fold excess of nonradioactive 12 injected 10 min prior): increased brain uptake | C 25min/C 60min (P2Y12R [6]; WT mice, brain TAC plateau phase): ~1.5 | time of maximum brain uptake (P2Y12R [6]; WT mice, p.i.): ≤ 2 min | maximum brain uptake C max (P2Y12R [6]; WT mice): 2.5 ± 0.7 SUV | brain V T increase in WT compared to PLX mice (P2Y12R [6]; image-derived cardiac input function, p = 0.002): 16% | brain V T increase in Trem2-/- compared to PLX mice (P2Y12R [6]; image-derived cardiac input function, p = 0.0454): 10% | maximum brain uptake C max (P2Y12R [6]; microglia-depleted (PLX) mice): 2.0 ± 0.5 SUV | fraction of radioactivity in liver ([7]; WT mice, radio-HPLC): 47% | fraction of radioactivity in plasma ([7]; WT mice, radio-HPLC): about 11% | intact tracer in plasma ([7]; WT, PLX and Trem2-/- mice): 7 ± 4% | intact tracer in brain ([7]; all groups): > 99% | cortical signal under blocking with Ticagrelor (P2Y12R [8]; PLX sections, 1 μM ticagrelor, p > 0.05): no reduction was observed | cortical signal under blocking with Ticagrelor (P2Y12R [8]; Trem2-/- sections, 1 μM ticagrelor, p < 0.05): significantly reduced | cortical signal under blocking with Ticagrelor (P2Y12R [8]; WT sections, 1 μM ticagrelor (1000-fold excess), p < 0.001): significantly reduced | signal under blocking with nonradioactive compound 12 (P2Y12R [8]; WT, PLX and Trem2-/- sections, 1 μM 12 (1000-fold excess)): almost complete blocking of the signal | CTX signal normalized to HYP, PLX sections compared to WT and Trem2-/- (P2Y12R [8]; WT: p < 0.005, Trem2-/-: p < 0.001): significant decreased uptake | correlation R between P2Y12R signal and tracer uptake (P2Y12R [9]; p = 0.0007): 0.754 | correlation R between Iba1 signal and tracer uptake (P2Y12R [9]; p = 0.0055): 0.6589
